US6362212B1, “Oxime derivative and bactericide containing the same as active ingredient” (Shionogi & Company, Ltd., priority 1994, dated 2002)

Columns and labels:
Assay type in all cases: in vivo
Sphaerotheca fuliginea = experiment: Controlling effect on Sphaerotheca fuliginea by foliage application (pot experiment); settings: foliage spray on cucumber (cv. TSUKUBASHIROIBO) first leaves, infected area after 10 days in greenhouse at 20° C.
Experimental: The following Test Examples illustrate the effects of the fungicide of the present invention. (I. Controlling effects on various plant diseases by foliage application (pot experiment)) A test compound was dissolved in a small amount of N,N-dimethylformamide, and the solution was diluted to a given concentration with distilled water containing a spreader. Thus, a liquid sample to be tested was prepared. The liquid sample was sprayed to test plants, and 24 hours thereafter, pathogens were inoculated by the method described below. […] Seeds of cucumber ([…]) were sown in plastic cups (each 9 cm in diameter), followed by cultivation for 2 to 3 weeks. The liquid test sample in the form of a solution or suspension was sprayed on the surface of their first leaves. The pathogen was inoculated to the leaves by spraying a conidia suspension of Sphaerotheca fuliginea which had been cultured on the cucumber leaves. After the inoculation, the plants were kept in a greenhouse at 20° C. for 10 days. Then, the infected area on the leaf was observed, and the percent control was calculated.

[1] = tested on: Erysiphe graminis f. sp. tritici; experiment: Controlling effect on Erysiphe graminis f. sp. tritici by foliage application (pot experiment); settings: foliage spray on wheat (cv. NORIN No. 61) seedlings, infected area after 10 days in greenhouse at 20° C.
Experimental: The following Test Examples illustrate the effects of the fungicide of the present invention. (I. Controlling effects on various plant diseases by foliage application (pot experiment)) A test compound was dissolved in a small amount of N,N-dimethylformamide, and the solution was diluted to a given concentration with distilled water containing a spreader. Thus, a liquid sample to be tested was prepared. The liquid sample was sprayed to test plants, and 24 hours thereafter, pathogens were inoculated by the method described below. […] The seeds of wheat (cv.: NORIN No. 61) were sown in plastic cups (each 9 cm in diameter), followed by cultivation for 2 to 3 weeks. The test compound in the form of a solution or suspension was sprayed to the seedlings, and conidia of Erysiphe graminis f. sp. tritici cultured on wheat leaves were dropped on the test plants to inoculate the plants with the pathogen. After the inoculation, the plants were kept in a greenhouse at 20° C. for 10 days. The infected area on the leaf was observed, and the percent control was calculated.

Pyricularia oryzae = settings: foliage spray on rice seedlings (cv. […]), number of lesions six days after the inoculation

Row | SMILES | Controlling effect on Sphaerotheca fuliginea by foliage application at 500 ppm (percent control) (Sphaerotheca fuliginea) | Controlling effect on ErYsiphe graminis f. sp. tritici by foliage application at 500 ppm (percent control) [1] [percent control] | Controlling effect on PYricularia orYzae by foliage application at 500 ppm (percent control) (Pyricularia oryzae)
1 | CON=C(c1ccon1)c1ccccc1COc1cccc(C(F)(F)F)c1 (mixture of isomers) [compound 322] | 100 | 70 | 70
2 | CON=C(C1=NCCN1)c1ccccc1COc1cccc(C)c1 (mixture of isomers) [compound 1461] | – | – | 70
3 | CCON=C(c1ccon1)c1ccccc1COc1cc(C)ccc1C (mixture of isomers) [compound 1674] | 70 | 70 | 70
4 | CON=C(c1ccccc1COc1ccc(Cl)cc1)c1nccn1C (single isomer, unassigned) [107A] | 100 | 70 | 90
5 | CON=C(c1ccccc1COc1ccc(C)cc1)c1nccn1C (single isomer, unassigned) [114A] | 100 | 90 | 90
6 | CON=C(c1ccccc1COc1ccccc1OC)c1nccn1C (single isomer, unassigned) [118B] | – | – | 70
7 | CON=C(c1ccccc1COc1ccc(Cl)cc1C)c1nccn1C (single isomer, unassigned) [141B] | 100 | – | 70
8 | CON=C(c1ccccc1COc1cc(C)ccc1C)c1ccnn1C (single isomer, unassigned) [1554A] | – | 70 | 70
9 | CON=C(c1ccccc1COc1cc(C)ccc1C)n1ccnc1 [Compound No. 39] | 100 | – | 70
10 | CON=C(c1ncon1)c1ccccc1COc1ccccc1C [Compound No. 812] | 100 | 100 | 70
11 | CON=C(c1noc(C)n1)c1ccccc1COc1ccccc1C [Compound No. 912] | 100 | 90 | 70
12 | O=C1OCc2c(Cl)c(Cl)c(Cl)c(Cl)c21 [Fthalide, reference compound] | – | – | 97
13 | CON=C(c1ccccc1COc1ccccc1)n1cnc(C)c1 [compound 221] | 97 | 70 | 70
14 | CON=C(c1ccccc1COc1ccccc1Cl)n1cnc(C)c1 [compound 225] | – | – | 70
15 | CON=C(c1ccccc1COc1cccc(Cl)c1)n1cnc(C)c1 [compound 226] | 70 | 70 | 70
16 | CON=C(c1ccccc1COc1ccccc1)n1ccnc1C [compound 241] | – | – | 70
17 | CON=C(c1ccccc1COc1ccccc1)n1cncn1 [compound 261] | 97 | 97 | 70

Row | SMILES | Controlling effect on Sphaerotheca fuliginea by foliage application at 500 ppm (percent control) (Sphaerotheca fuliginea) | Controlling effect on ErYsiphe graminis f. sp. tritici by foliage application at 500 ppm (percent control) [1] [percent control] | Controlling effect on PYricularia orYzae by foliage application at 500 ppm (percent control) (Pyricularia oryzae)
18 | CON=C(c1ccccc1COc1cccc(Cl)c1)n1cncn1 [compound 266] | 97 | 97 | 90
19 | CON=C(c1ccccc1COc1ccccc1)n1cccn1 [compound 281] | – | 90 | 70
20 | CON=C(c1ccccc1COc1ccc(Cl)cc1)n1cccn1 [compound 287] | – | – | 90
21 | CCON=C(c1ccccc1COc1ccccc1)n1cccn1 [compound 295] | – | 90 | 90
22 | CON=C(c1ccccc1Oc1ccccc1)n1cccn1 [compound 300] | 70 | – | 70
23 | CON=C(C1=NCCN1C)c1ccccc1COc1ccc(C(F)(F)F)cc1 [compound 1123] | 90 | 90 | –
24 | CON=C(C1=NCCO1)c1ccccc1COc1ccccc1C [compound 1310] | 90 | 90 | 70
25 | CON=C(C1=NCCO1)c1ccccc1COc1cccc(C)c1 [compound 1311] | 70 | 70 | –
26 | CON=C(c1ncc[nH]1)c1ccccc1COc1cc(C)ccc1C [compound 1428] | 100 | 70 | –
27 | CON=C(C1=NCCN1)c1ccccc1COc1ccccc1C [compound 1460] | – | 90 | 90
28 | CON=C(C1=NCCS1)c1ccccc1COc1cc(C)ccc1C [compound 1514] | 97 | 70 | –
29 | CON=C(c1ncno1)c1ccccc1COc1ccccc1 [compound 1581] | 70 | – | 70
30 | CON=C(c1cnco1)c1ccccc1COc1cc(C)ccc1C [compound 1734] | 90 | 70 | –
31 | CON=C(c1cnco1)c1ccccc1Oc1ccccc1 [compound 1735] | 100 | 97 | –
32 | CON=C(c1nnn(C)n1)c1ccccc1COc1ccccc1C [compound 2012] | 100 | 70 | –
33 | CON=C(c1ccccc1CON=C(C)c1ccccc1)n1ccnc1 [compound 3041] | 97 | – | 90
